Assays:
Type in all cases: in vivo
[1] = system: MC38 tumor cells; experiment: MC38 syngeneic mouse tumor model, PF-06873600 with checkpoint antibodies (Example 2); settings: for tumor growth inhibition (in words): MC38 model, day 27 post-treatment initiation; for CR % on day 27: complete response; for CR % on day 27 / TGI % on day 27: day 27, s.c. MC38 tumors in female C57/BL6 mice, doses as in Table 10; for TGI % on day 27: tumor growth inhibition
Description: MC38 cells were obtained from American Type Culture Collection (ATCC) and cultured in Roswell Park Memorial Institute (RPMI1640) supplemented with 10% fetal bovine serum (FBS). All cells were maintained in a humidified incubator at 37° C. with 5% carbon dioxide (CO2). Female C57/BL6 mice were obtained from Jackson Laboratories at 8 weeks of age. To generate the syngeneic model, 0.5 million MC38 tumor cells were subcutaneously implanted into the right flank of female C57/BL6 mice. Tumor bearing mice were randomized into nine treatment groups based on average tumor sizes of approximately 70 mm^3 per group, on Day 9 post tumor cell implantation. Study groups included vehicle, 30 mg/kg PF-06873600 (CDK 2/4/6 inhibitor) twice daily by oral gavage, avelumab (anti-PD-L1 antibody, PF-06834635) administered by intraperitoneal (IP) injection, 10 mg/kg, combination of avelumab administered at 10 mg/kg with anti-OX40 antibody (PF-07201252) administered at 5 mg/kg by IP injection, combination of anti-PD-L1 antibody administered at 10 mg/kg with anti-4-1BB antibody (PF-07218859) administered at 3 mg/kg by IP injection, combination of anti-PD-L1 antibody as described above with PF-06873600 administered at 30mg/kg twice daily by oral gavage, combination of anti-PD-L1 antibody and anti-OX40 antibody as described above with PF-06873600 administered at 30 mg/kg twice daily by oral gavage, combination of anti-PD-L1 antibody with anti-4-1BB antibody as described above with PF-06873600 administered at 30mg/kg twice daily by oral gavage and combination of anti-PD-L1 antibody, anti-OX40 antibody and anti-41-BB antibody as described above with PF-06873600 administered at 30 mg/kg twice daily by oral gavage. All antibodies were administered as three doses; one every three days after the study initiation. All antibody formulations are phosphate buffered saline based while PF-06873600 was administered in a 0.5% methocel/Tween suspension.
Tumor volumes were measured three times a week. Tumor volume was calculated based on two-dimensional caliper measurement with cubic millimeter volume calculated using the formula (length×width2)×0.5. Mice were sacrificed when the tumor volumes reached 2000 mm^3, which was the survival endpoint for this study. Survival curves were plotted using GraphPad Prism 7 software. Statistical significance determined using the Holm-Sidak method, with alpha=0.05.

[2] = system: MC38 tumor cells; experiment: MC38 syngeneic mouse tumor model, palbociclib with checkpoint antibodies (Example 1)
Description: MC38 cells were obtained from American Type Culture Collection (ATCC) and cultured in Roswell Park Memorial Institute (RPMI1640) supplemented with 10% fetal bovine serum (FBS). All cells were maintained in a humidified incubator at 37° C. with 5% carbon dioxide (CO2). Female C57/BL6 mice were obtained from Jackson Laboratories at 8 weeks of age. To generate the syngeneic model, 0.5 million MC38 tumor cells were subcutaneously implanted into the right flank of female C57/BL6 mice. Tumor bearing mice were randomized into four treatment groups based on average tumor sizes of approximately 70 mm^3 per group, on Day 9 post tumor cell implantation. […]
(§1) Tumor volumes were measured three times a week. Tumor volume was calculated based on two-dimensional caliper measurement with cubic millimeter volume calculated using the formula (length×width2)×0.5. […] Statistical significance determined using the Holm-Sidak method, with alpha=0.05.

[3] = system: 4T1 tumor cells; experiment: 4T1 syngeneic mouse tumor model, PF-06873600 with checkpoint antibodies (Example 7)
Description: 4T1 cells were obtained from American Type Culture Collection (ATCC) and cultured in Roswell Park Memorial Institute (RPMI1640) supplemented with 10% fetal bovine serum (FBS). All cells were maintained in a humidified incubator at 37° C. with 5% carbon dioxide (CO2). Female C57/BL6 mice were obtained from Jackson Laboratories at 8 weeks of age. To generate the syngeneic model, 30,000 4T1 tumor cells were subcutaneously implanted into the right flank of […]. Tumor bearing mice were randomized into four treatment groups based on average tumor sizes of approximately 70 mm^3 per group. Study groups included vehicle, 30 mg/kg PF-06873600 (CDK 2/4/6 inhibitor) twice daily by oral gavage, combination of 10 mg/kg anti-PD-1 antibody (PF-06937004) with 5 mg/kg anti-OX40 antibody (PF-07201252) and with 3 mg/kg anti-4-1BB antibody (PF-07218859) all administered by IP injection, and the combination of PF-06873600, anti-PD-1 antibody, anti-OX40 antibody and anti-41-BB antibody dosed as described in the cohorts above. […]
as §1

Molecule	tumor growth inhibition (in words) [1]	CR % on day 27 [1] [%]	TGI % on day 27 [1] [%]	tumor growth inhibition (in words) ([2]; MC38 model, day 27 post-treatment initiation)	TGI % on day 27 ([2]; tumor growth inhibition, day 27, s.c. MC38 tumors in female C57/BL6 mice, doses as in Table 8) [%]	tumor growth inhibition (in words) ([3]; 4T1 model, day 18 post-treatment initiation)	TGI % on day 27 ([3]; tumor growth inhibition, s.c. 4T1 tumors in female C57/BL6 mice, doses as in Table 16) [%]
PF-06834635: avelumab (anti-PD-L1 antibody, PF-06834635)	did not significantly inhibit tumor growth	0	9	–	–	–	–
CC(=O)c1c(C)c2cnc(Nc3ccc(N4CCNCC4)cn3)nc2n(C2CCCC2)c1=O [palbociclib, 6-acetyl-8-cyclopentyl-5-methyl-2-(5-piperazin-1-yl-pyridin-2-ylamino)-8H-pyrido[2,3-d]pyrimidin-7-one]	–	–	–	did not significantly inhibit tumor growth	29	–	–
C[C@@]1(O)CCC[C@H]1n1c(=O)c(C(F)F)cc2cnc(NC3CCN(S(C)(=O)=O)CC3)nc21 [PF-06873600, 6-(difluoromethyl)-8-((1R,2R)-2-hydroxy-2-methylcyclopentyl)-2-(1-(methylsulfonyl)piperidin-4-ylamino)pyrido[2,3-d]pyrimidin-7(8H)-one]	did not significantly inhibit tumor growth	0	−7	–	–	significantly inhibited tumor growth	66

From US20220241412A1, “COMBINATION THERAPIES USING CDK INHIBITORS” (Pfizer Inc., priority 2019, published 2022)
